Data published in paper PMC9816194, “Use of the head-twitch response to investigate the structure–activity relationships of 4-thio-substituted 2,5-dimethoxyphenylalkylamines” (Psychopharmacology, 2022).
Like-named read-outs stand apart in the source and are kept apart here.

Tests used:
[1] = system: male C57BL/6 J mice; assay: Head-twitch response (HTR), magnetometer coil recording; format: in vivo; conditions: for HTR Counts (Mean ± SEM): 30 min; for ED50: Mus musculus, 0.5 h, HTR, IP, 30 min recording, male C57BL/6 J mice; for maximum number of head twitches (mean ± SEM): during the 30-min assessment period; for reduction of HTR potency versus 2C-T-7: replacement of the 4-n-propylthio group of 2C-T-7
Method: Male C57BL/6 J mice (Jackson Laboratory, Bar Harbor, ME) were housed in a vivarium at the University of California San Diego (UCSD), which is an AAALAC-approved animal facility that complies with Federal and State requirements for care and treatment of laboratory animals. The mice (6–8 weeks old) were housed in a climate-controlled room with a reversed light-cycle (lights on at 19:00 h, off at 07:00 h) up to 4 animals per cage. Food and water were provided ad libitum, except during behavioral testing which occurred between 10:00 and 18:00 h. All experiments were conducted according to NIH guidelines and were approved by the UCSD animal care committee.
Head movement was recorded using a head-mounted magnet and a magnetometer coil (Halberstadt and Geyer [2013]). Briefly, mice were anesthetized, a small incision was made in the scalp, and a neodymium magnet was attached to the dorsal surface of the cranium using dental cement. Following a 1–2-week recovery period, behavioral experiments were conducted in a well-lit room with at least 7 days between sessions to avoid any carryover effects. Mice were treated with vehicle or test compound and then placed in a glass cylinder surrounded by a magnetometer coil and activity was recorded for 30 min. All test substances were administered IP dissolved in saline using an injection volume of 5 mL/kg. Coil voltage was filtered (5–10 kHz lowpass), digitized (20 kHz sampling rate), and saved to disk using a Powerlab/8SP with LabChart v 7.3.2 (ADInstruments, Colorado Springs, CO). To detect head twitches, events in the recordings were converted into scalograms using a wavelet transform and then the images were classified using a multistage approach combining the deep convolutional neural network (CNN) ResNet-50 with a support vector machine (SVM) algorithm (Halberstadt [2020]). HTR counts were analyzed using a one-way Welch analysis of variance (ANOVA). Post hoc pairwise comparisons were performed using Dunnett’s test. […] Median effective doses (ED50 values) and 95% confidence intervals were calculated using nonlinear regression (Prism ver. 9.0.2, GraphPad Software Inc, San Diego, CA, USA).

[2] = biological target: T1, human 5-HT2A receptor (Homo sapiens, UniProt P28223); assay: 5-HT2A receptor binding, [3H]ketanserin displacement; set-up: expressed in transfected cells; host or cells: HEK 293 (transient), membrane preparations
Method: (§1) 5-HT receptor binding affinities were assessed as previously described in detail (Luethi et al. [2018]). In brief, membrane preparations of transiently transfected HEK 293 cells were incubated with selective radioligands at concentrations equal to the corresponding Kd and then ligand displacement by the test drugs was measured. The difference between the total binding and the nonspecific binding determined in the presence of selective competitors was defined as specific binding. The following radioligands and competitors, respectively, were used: 0.40 nM [^3H]ketanserin and 10 μM spiperone (serotonin 5-HT2A receptor), 1.4 nM [^3H]mesulergine and 10 μM mianserin (serotonin 5-HT2C receptor). The IC50 values of the radioligand binding assays were determined using nonlinear regression curves for every drug in a one-site model. Ki values corresponding to the dissociation constants were calculated with the Cheng-Prusoff equation.

[3] = biological target: T2, h5-HT2C receptors (Homo sapiens, UniProt P28335); assay: 5-HT2C receptor binding, [3H]mesulergine displacement
T2 construct: expressed in transfected cells; host or cells: HEK 293 (transient), membrane preparations
T2 sequence (P28335 33-458): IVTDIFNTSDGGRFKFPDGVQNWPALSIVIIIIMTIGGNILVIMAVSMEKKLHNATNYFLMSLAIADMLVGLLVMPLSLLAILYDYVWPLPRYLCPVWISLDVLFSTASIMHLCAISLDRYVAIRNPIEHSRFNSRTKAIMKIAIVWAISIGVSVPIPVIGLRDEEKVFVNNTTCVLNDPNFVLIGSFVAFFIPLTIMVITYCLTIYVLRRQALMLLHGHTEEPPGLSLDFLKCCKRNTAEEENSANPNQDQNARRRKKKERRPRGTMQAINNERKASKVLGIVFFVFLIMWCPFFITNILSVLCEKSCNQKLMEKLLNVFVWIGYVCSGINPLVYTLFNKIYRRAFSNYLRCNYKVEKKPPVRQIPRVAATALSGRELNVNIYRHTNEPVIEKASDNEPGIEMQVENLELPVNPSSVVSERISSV
Method: as §1

[4] = biological target: T1, human 5-HT2A receptor; assay: Agonist activity at the 5-HT2A receptor, FLIPR calcium flux in NIH-3T3 cells; format: cell-based; set-up: expressed in transfected cells; conditions: for Emax: NIH3T3, calcium flux, relative to 5-HT, read-out: h5-HT2A Emax
Method: NIH-3T3 cells stably expressing the human 5-HT2A receptor were incubated in HEPES-Hank’s Balanced Salt Solution (HBSS) buffer (Gibco, Zug, Switzerland; 70,000 cells/100 μL) for 1 h at 37 °C in poly-D-lysine-coated 96-well plates. Thereafter, 100 μL of dye solution (fluorescence imaging plate reader [FLIPR] calcium 5 assay kit dye solution; Molecular Devices, Sunnyvale, CA, USA) was added to each well and the plates were incubated for 1 h at 37 °C. The plates were then placed into a FLIPR and 25 μL of the test drugs diluted in HEPES-HBSS containing 250 mM probenicid was added to each well online. The increase in fluorescence was measured for 51 s, and EC50 values were derived from the concentration–response curves using nonlinear regression.

[5] = biological target: T3, human 5-HT2B receptor (Homo sapiens, UniProt P41595); assay: Agonist activity at the 5-HT2B receptor, FLIPR calcium flux in HEK 293 cells; format: cell-based; conditions: for Emax: HEK293, calcium flux, read-out: h5-HT2B Emax
T3 construct: expressed in transfected cells
Method: HEK 293 cells stably expressing the human 5-HT2B receptor were incubated overnight in poly-D-lysine-coated 96-well plates at a density of 50,000 cells per well and 37 °C. Thereafter, the growth medium was removed by snap inversion and 200 μL of no wash dye (FLIPR calcium 6 assay kit; Molecular Devices, Sunnyvale, CA, USA) was added to each well. The plates were incubated for 2 h at 37 °C and then placed into a FLIPR. Fifty microliters of the test drugs diluted in assay buffer was added to each well online and the increase in fluorescence was measured for 51 s. EC50 values were derived from the concentration–response curves using nonlinear regression.

[6] = system: humans; conditions: cited from earlier work; for Human potency range: dose range active as psychedelic in humans
[7] = biological target: T1, human 5-HT2A receptor; set-up: expressed in transfected cells; host or cells: HEK 293 (transient), membrane preparations; conditions: read-out: 5-HT2A Ki; [3H]ketanserin; ref Luethi et al. (2018); cited from earlier work
[8] = system: mice; conditions: ref Gonzalez-Maeso et al. 2007; Halberstadt and Geyer 2013; cited from earlier work
[9] = read-out: ED50 µmol/kg (95% CI)
[10] = p.o., ref Shulgin and Shulgin 1991, Trachsel et al. 2013

T3 sequence (P41595 whole entry): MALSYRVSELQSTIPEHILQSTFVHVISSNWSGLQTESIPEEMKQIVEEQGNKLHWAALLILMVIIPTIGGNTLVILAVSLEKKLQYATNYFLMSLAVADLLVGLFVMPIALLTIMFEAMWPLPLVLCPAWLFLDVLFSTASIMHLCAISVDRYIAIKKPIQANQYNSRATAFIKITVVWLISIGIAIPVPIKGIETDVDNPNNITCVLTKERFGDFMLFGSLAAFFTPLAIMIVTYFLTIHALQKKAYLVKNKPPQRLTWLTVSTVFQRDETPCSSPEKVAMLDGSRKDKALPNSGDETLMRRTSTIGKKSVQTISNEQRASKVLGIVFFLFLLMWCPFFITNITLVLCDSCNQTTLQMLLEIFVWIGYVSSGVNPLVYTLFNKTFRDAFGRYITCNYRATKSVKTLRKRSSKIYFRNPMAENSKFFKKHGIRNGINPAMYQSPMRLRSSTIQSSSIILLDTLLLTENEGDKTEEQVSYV
T1 sequence (P28223 whole entry): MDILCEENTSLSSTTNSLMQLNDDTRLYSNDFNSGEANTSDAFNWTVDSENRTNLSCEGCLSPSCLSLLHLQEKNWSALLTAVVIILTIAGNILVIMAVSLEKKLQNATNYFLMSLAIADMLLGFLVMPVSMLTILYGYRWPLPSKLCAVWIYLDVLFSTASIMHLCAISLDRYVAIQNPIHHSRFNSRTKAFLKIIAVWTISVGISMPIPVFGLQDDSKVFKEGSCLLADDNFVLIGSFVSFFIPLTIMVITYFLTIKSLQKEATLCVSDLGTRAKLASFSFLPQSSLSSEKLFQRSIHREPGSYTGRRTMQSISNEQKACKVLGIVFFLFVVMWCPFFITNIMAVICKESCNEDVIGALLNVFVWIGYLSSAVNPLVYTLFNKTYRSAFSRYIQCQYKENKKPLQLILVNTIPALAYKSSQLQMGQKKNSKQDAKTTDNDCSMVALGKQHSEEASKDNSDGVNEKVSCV

SMILES	HTR Counts (Mean ± SEM) ([1]; 0.3 mg/kg IP)	HTR Counts (Mean ± SEM) ([1]; 1 mg/kg IP)	HTR Counts (Mean ± SEM) ([1]; 3 mg/kg IP)	HTR Counts (Mean ± SEM) ([1]; 10 mg/kg IP)	ED50 [1, 9]	ED50 ([1]; read-out: ED50 mg/kg (95% CI))	Ki [7]	other results
COc1cc(SC)c(OC)cc1CC(C)N.Cl (stereo not shown) [ALEPH, 2,5-Dimethoxy-4-methylthioamphetamine hydrochloride]	19.4 ± 1.2	72.0 ± 12.1	115.0 ± 20.9	74.0 ± 13.5	2.88 µmol/kg	0.8 mg/kg		HTR Counts (Mean ± SEM) ([1]; 0.1 mg/kg IP): 7.8 ± 1.2; Ki [2]: 77.8 nM; Ki [3]: 355 ± 76 nM; EC50 [4]: 10.3 ± 0.6 nM; Emax [4]: 80 ± 2.3%; EC50 [5]: 19.2 ± 1.7 nM; Emax [5]: 51 ± 2.6%; Human active dose range ([6]; ref Shulgin and Nichols 1978, Shulgin and Shulgin 1991): 5 to 15 mg
COc1cc(SC)c(OC)cc1CCN.Cl [Compound 2C-T, 2,5-Dimethoxy-4-methylthiophenethylamine hydrochloride]			49.3 ± 3.1		13.8 µmol/kg	3.65 mg/kg	49 nM	HTR Counts (Mean ± SEM) ([1]; 1.5 mg/kg IP): 22.4 ± 5.9; HTR Counts (Mean ± SEM) ([1]; 6 mg/kg IP): 61.0 ± 4.7; HTR Counts (Mean ± SEM) ([1]; 12 mg/kg IP): 97.2 ± 8.1; HTR Counts (Mean ± SEM) ([1]; 24 mg/kg IP): 64.8 ± 6.0; maximum number of head twitches (mean ± SEM) [1]: 97.2 ± 8.1; Human potency range ([6]; ref Shulgin and Shulgin (1991)): 60–100 mg ^[5]; Human active dose range ([6]; ref Shulgin and Shulgin 1991, Shulgin et al. 1991): 60 to 100 mg
C=C(C)CSc1cc(OC)c(CCN)cc1OC.Cl [Compound 2C-T-3, 2,5-dimethoxy-4-methallylthiophenethylamine hydrochloride]	11.3 ± 3.6	26.2 ± 3.4	67.6 ± 5.4	67.8 ± 7.5	6.12 µmol/kg	1.86 mg/kg	11 nM	HTR Counts (Mean ± SEM) ([1]; 30 mg/kg IP): 2.2 ± 1.4; reduction of HTR potency versus 2C-T-7 [1]: more than 50%
C=CCSc1cc(OC)c(CCN)cc1OC.Cl [Compound 2C-T-16, 4-allylthio-2,5-dimethoxyphenethylamine hydrochloride]			101.6 ± 20.4		5.8 µmol/kg	1.68 mg/kg	9.2 nM	HTR Counts (Mean ± SEM) ([1]; 1.5 mg/kg IP): 49.6 ± 11.1; HTR Counts (Mean ± SEM) ([1]; 6 mg/kg IP): 100.6 ± 9.6; HTR Counts (Mean ± SEM) ([1]; 12 mg/kg IP): 51.2 ± 18.3; HTR potency relative to 2C-T-7 ([1]; mouse, in vivo): about 50%; reduction of HTR potency versus 2C-T-7 [1]: more than 50%
CCCCSc1cc(OC)c(CCN)cc1OC.Cl [Compound 2C-T-19, 4-n-butylthio-2,5-dimethoxyphenethylamine hydrochloride]	14.2 ± 3.4	19.8 ± 1.1	26.6 ± 9.4	12.0 ± 4.1	3.27 µmol/kg	1 mg/kg	6.9 nM	maximum number of head twitches (mean ± SEM) [1]: 26.6 ± 9.4
COc1cc(SCCF)c(OC)cc1CCN.Cl [Compound 2C-T-21, 2,5-dimethoxy-4-(2-fluoroethylthio)phenethylamine hydrochloride]	8.8 ± 2.1	19.8 ± 2.7	61.8 ± 5.0	72.6 ± 9.4	5.58 µmol/kg	1.65 mg/kg		Ki [2]: 27.7 ± 6.2 nM; Ki [3]: 72.7 ± 10.6 nM; EC50 [4]: 9.7 ± 0.1 nM; Emax [4]: 69 ± 4.8%; EC50 [5]: 102 ± 24 nM; Emax [5]: 32 ± 1.8%; Human potency range ([6]; ref Shulgin and Shulgin (1991)): 8–12 mg ^[5]; Human active dose range [6, 10]: 8 to 20 mg
COc1cc(SCC(F)F)c(OC)cc1CCN.Cl [Compound 2C-T-21.5, 4-(2,2-difluoroethylthio)-2,5-dimethoxyphenethylamine hydrochloride]			39.4 ± 7.2		9.97 µmol/kg	3.13 mg/kg	14 nM	HTR Counts (Mean ± SEM) ([1]; 1.5 mg/kg IP): 26.0 ± 5.4; HTR Counts (Mean ± SEM) ([1]; 6 mg/kg IP): 85.6 ± 9.8; HTR Counts (Mean ± SEM) ([1]; 12 mg/kg IP): 40.4 ± 13.0; Human potency range ([6]; ref Trachsel et al. (2013)): 12–30 mg ^[6]; Human active dose range [6, 10]: 12 to 30 mg
COc1cc(SCCCF)c(OC)cc1CCN.Cl [Compound 2C-T-28, 4-(3-fluoropropylthio)-2,5-dimethoxyphenethylamine hydrochloride]	7.4 ± 2.0	25.4 ± 4.1	42.0 ± 6.1	27.2 ± 7.4	3.49 µmol/kg	1.08 mg/kg	17 nM	Human active dose range [6, 10]: 8 to 20 mg
CCN(CC)C(=O)[C@@H]1C=C2c3cccc4[nH]cc(c34)C[C@H]2N(C)C1 [LSD, lysergic acid diethylamide, reference compound]								induction of HTR (in words) [8]: induces the HTR
COc1cc(CC(C)N)cc(OC)c1OC (stereo not shown) [TMA, 3,4,5-trimethoxyamphetamine, reference compound]								Human potency range ([6]; ref Shulgin and Shulgin (1991)): 100 to 250 mg
CCN(CC)C(=O)N[C@H]1C=C2c3cccc4[nH]cc(c34)C[C@H]2N(C)C1 [lisuride, reference compound]								induction of HTR (in words) [8]: does not induce the response
